Assay results as given in patent US7928140B2, “Benzothiazole PI3 kinase modulators for cancer treatment” (Amgen Inc., priority 2007, dated 2011).

How the values were obtained:
PI3K α = biological target: T1, PI3K α (Homo sapiens, UniProt P42336); test: In vitro PI3 kinase enzyme assay (alpha), ATP loss, bioluminescence; format: biochemical; conditions: read-out: PI3Kα ATP loss IC50;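 also: purified p110α/p85 heterodimer acting on PtdIns(4,5)P2 at room temperature, remaining ATP read by luminescence, inhibition scaled between compound-free wells with and without enzyme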
T1 construct: Full length p110 subunits of PI3K α, β and δ, N-terminally labeled with polyHis tag; polyHis (N); made in house; host or cells: Sf9 insect cells (baculovirus)
T1 sequence (P42336 whole entry, species assumed): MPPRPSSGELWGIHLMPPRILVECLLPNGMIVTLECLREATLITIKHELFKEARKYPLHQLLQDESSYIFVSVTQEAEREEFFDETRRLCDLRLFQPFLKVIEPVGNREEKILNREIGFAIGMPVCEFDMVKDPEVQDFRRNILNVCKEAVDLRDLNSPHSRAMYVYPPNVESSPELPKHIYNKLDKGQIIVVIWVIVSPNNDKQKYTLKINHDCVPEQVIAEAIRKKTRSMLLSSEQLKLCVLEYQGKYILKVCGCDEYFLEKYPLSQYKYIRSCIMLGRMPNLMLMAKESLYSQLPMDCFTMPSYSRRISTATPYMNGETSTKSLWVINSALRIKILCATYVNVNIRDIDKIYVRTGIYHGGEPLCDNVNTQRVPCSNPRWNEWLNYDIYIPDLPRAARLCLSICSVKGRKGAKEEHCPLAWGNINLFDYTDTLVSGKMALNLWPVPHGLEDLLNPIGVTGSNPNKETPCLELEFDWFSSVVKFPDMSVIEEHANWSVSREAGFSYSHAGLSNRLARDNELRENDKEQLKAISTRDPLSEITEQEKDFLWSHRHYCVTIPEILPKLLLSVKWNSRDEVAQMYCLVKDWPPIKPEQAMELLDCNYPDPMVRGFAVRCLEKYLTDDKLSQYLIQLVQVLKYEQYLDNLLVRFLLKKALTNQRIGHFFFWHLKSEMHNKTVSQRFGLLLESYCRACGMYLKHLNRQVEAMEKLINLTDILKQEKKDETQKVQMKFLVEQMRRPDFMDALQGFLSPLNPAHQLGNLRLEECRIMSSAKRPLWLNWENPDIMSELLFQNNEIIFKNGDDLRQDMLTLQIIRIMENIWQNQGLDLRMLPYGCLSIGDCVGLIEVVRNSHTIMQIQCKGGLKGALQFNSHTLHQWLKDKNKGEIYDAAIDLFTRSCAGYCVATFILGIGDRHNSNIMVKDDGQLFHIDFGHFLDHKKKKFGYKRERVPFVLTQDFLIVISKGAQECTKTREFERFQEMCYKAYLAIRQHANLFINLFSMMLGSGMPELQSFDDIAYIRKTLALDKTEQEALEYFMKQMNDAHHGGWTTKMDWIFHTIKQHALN
T1 sequence (P27986 whole entry partner, species assumed): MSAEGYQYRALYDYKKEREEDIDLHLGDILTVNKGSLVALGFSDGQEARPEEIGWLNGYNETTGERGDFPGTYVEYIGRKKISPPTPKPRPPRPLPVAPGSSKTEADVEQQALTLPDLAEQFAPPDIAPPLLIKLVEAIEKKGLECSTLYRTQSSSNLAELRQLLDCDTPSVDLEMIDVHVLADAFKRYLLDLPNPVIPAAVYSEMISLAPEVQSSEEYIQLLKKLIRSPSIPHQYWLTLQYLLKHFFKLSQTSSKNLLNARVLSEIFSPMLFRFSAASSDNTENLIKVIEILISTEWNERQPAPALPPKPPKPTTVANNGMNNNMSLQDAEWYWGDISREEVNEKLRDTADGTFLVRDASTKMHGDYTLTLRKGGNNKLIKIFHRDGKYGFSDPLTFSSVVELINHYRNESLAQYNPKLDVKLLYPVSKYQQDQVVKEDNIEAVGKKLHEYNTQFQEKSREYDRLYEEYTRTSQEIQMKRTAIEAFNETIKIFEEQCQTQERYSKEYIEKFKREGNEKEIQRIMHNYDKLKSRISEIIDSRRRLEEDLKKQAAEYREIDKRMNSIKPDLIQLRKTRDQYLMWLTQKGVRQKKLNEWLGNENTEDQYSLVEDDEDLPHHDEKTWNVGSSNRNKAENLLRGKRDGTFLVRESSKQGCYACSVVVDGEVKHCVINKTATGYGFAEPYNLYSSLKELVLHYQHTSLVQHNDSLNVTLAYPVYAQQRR

PI3K β = biological target: T2, PI3K β (Homo sapiens, UniProt P42338); test: In vitro PI3 kinase enzyme assay (beta), ATP loss, bioluminescence; format: biochemical; conditions: read-out: PI3Kβ ATP loss IC50;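 also: purified p110β/p85 heterodimer with PtdIns(4,5)P2 as acceptor, incubated at room temperature, leftover ATP read by luminescence, inhibition scaled to compound-free wells with and without enzyme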
T2 construct: Full length p110 subunits of PI3K α, β and δ, N-terminally labeled with polyHis tag; polyHis (N); made in house; host or cells: Sf9 insect cells (baculovirus)
T2 sequence (P42338 whole entry): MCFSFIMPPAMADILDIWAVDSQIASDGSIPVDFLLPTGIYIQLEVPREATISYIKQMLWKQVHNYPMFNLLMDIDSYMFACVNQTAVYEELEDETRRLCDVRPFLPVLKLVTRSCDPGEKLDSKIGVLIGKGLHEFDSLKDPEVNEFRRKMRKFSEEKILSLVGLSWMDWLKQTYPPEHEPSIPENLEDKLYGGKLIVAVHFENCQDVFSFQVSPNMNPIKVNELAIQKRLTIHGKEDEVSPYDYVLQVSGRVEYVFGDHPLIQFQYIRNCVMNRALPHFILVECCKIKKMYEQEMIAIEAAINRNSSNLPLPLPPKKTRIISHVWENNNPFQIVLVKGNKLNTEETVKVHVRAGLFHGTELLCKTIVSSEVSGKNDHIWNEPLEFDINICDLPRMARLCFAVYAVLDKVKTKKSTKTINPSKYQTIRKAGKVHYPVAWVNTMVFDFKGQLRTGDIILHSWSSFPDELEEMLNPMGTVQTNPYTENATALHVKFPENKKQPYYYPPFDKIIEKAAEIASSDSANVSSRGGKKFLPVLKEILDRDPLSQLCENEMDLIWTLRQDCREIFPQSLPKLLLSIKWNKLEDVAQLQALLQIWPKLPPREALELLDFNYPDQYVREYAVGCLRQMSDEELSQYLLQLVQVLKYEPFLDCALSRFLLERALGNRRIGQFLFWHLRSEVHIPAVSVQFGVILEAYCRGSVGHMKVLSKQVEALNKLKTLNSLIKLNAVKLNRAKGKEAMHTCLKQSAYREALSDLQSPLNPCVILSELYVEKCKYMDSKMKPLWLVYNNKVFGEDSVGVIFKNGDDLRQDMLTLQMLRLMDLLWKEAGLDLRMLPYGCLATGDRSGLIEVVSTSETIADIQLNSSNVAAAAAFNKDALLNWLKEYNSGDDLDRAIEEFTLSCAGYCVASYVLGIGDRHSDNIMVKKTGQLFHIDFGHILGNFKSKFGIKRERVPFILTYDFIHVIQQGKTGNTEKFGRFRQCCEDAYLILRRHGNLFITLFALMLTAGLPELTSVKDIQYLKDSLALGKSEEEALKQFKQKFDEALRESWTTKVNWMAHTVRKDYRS
T2 sequence (P27986 whole entry partner): as the sequence (P27986 whole entry partner, species assumed) above
Protocol: Full length p110 subunits of PI3K α, β and δ, N-terminally labeled with polyHis tag, were co-expressed with p85 in baculovirus expression vectors in sf9 insect cells. P110/p85 heterodimers were purified by sequential Ni-NTA, Q-HP, and Superdex-100 chromatography. Purified α, β and δ isozymes were stored at −20° C. in 20 mM Tris, pH 8, 0.2M NaCl, 50% glycerol, 5 mM DTT, 2 mM Na cholate.
PI3K enzyme assays (alpha, beta, delta and gamma) were performed in 25 mL with the above final concentrations of components in white polypropylene plates (Costar catalogue #3355). Phosphatidyl inositol phosphoacceptor, PtdIns(4,5)P2 (eg. P4508) was obtained from Echelon Biosciences. The ATPase activity of the alpha and gamma isozymes was not greatly stimulated by PtdIns(4,5)P2 under these conditions and was therefore omitted from the assay of these isozymes. Test compounds were dissolved in DMSO and diluted with three-fold serial dilutions. The compound in DMSO (1 μL) was added per test well, and the inhibition relative to reactions containing no compound, with and without enzyme was determined. After assay incubation at RT, the reaction was stopped and residual ATP determined by addition of an equal volume of a commercial ATP bioluminescence kit (Perkin Elmer EasyLite) according to the manufacturer's instructions, and detected using an Analyst GT luminometer.

Structure (SMILES)	IC50 (PI3K α)	IC50 (PI3K β)
CC(=O)Nc1nc2ccc(-c3ccnc(N(C)S(=O)(=O)c4cccc5cnccc45)n3)cc2s1 [Example 208, N-(6-(2-(N-methylisoquinoline-5-sulfonamido)pyrimidin-4-yl)benzo[d]thiazol-2-yl)acetamide]	462 nM	743 nM
CC(=O)Nc1nc2ccc(-c3ccnc(N(C)S(=O)(=O)c4ccsc4)n3)cc2s1 [Example 209, N-(6-(2-(N-methylthiophene-3-sulfonamido)pyrimidin-4-yl)benzo[d]thiazol-2-yl)acetamide]	185 nM	855 nM
CC(=O)Nc1nc2ccc(-c3ccnc(N(C)S(=O)(=O)c4cn(C)cn4)n3)cc2s1 [Example 211, N-(6-(2-(N,1-dimethyl-1H-imidazole-4-sulfonamido)pyrimidin-4-yl)benzo[d]thiazol-2-yl)acetamide]	929 nM	3930 nM
CC(=O)Nc1nc2ccc(-c3ccnc(N(C)S(=O)(=O)c4ccc(C)cc4)c3)cc2s1 [Example 215, N-(6-(2-(N,4-dimethylphenylsulfonamido)pyridin-4-yl)benzo[d]thiazol-2-yl)acetamide]	438 nM	450 nM
CC(=O)Nc1nc2ccc(-c3cncc(N(C)S(=O)(=O)c4ccc(C(F)(F)F)cc4)c3)cc2s1 [Example 218, N-(6-(5-(N-methyl-4-(trifluoromethyl)phenylsulfonamido)pyridin-3-yl)benzo[d]thiazol-2-yl)acetamide]	1050 nM	8270 nM
CC(=O)Nc1nc2ccc(-c3cncc(N(C)S(=O)(=O)c4ccc(F)cc4)c3)cc2s1 [Example 219, N-(6-(5-(4-fluoro-N-methylphenylsulfonamido)pyridin-3-yl)benzo[d]thiazol-2-yl)acetamide]	375 nM	2930 nM
CC(=O)Nc1nc2ccc(-c3cncc(N(C)S(=O)(=O)c4ccc(Cl)cc4)c3)cc2s1 [Example 220, N-(6-(5-(4-chloro-N-methylphenylsulfonamido)pyridin-3-yl)benzo[d]thiazol-2-yl)acetamide]	539 nM	3330 nM
CC(=O)Nc1nc2ccc(-c3cccc(N(C)S(=O)(=O)c4ccccc4F)n3)cc2s1 [Example 226, N-(6-(6-(2-fluoro-N-methylphenylsulfonamido)pyridin-2-yl)benzo[d]thiazol-2-yl)acetamide]	161 nM	576 nM
CC(=O)Nc1nc2ccc(-c3cncc(OCCN4CCCC4=O)c3)cc2s1 [Example 229, N-(6-(5-(2-(2-oxopyrrolidin-1-yl)ethoxy)pyridin-3-yl)benzo[d]thiazol-2-yl)acetamide]	1080 nM	15000 nM
CC(=O)Nc1nc2ccc(-c3cncc(OCCN4CCOCC4)c3)cc2s1 [Example 230, N-(6-(5-(2-morpholinoethoxy)pyridin-3-yl)benzo[d]thiazol-2-yl)acetamide]	2790 nM	19300 nM
CC(=O)Nc1nc2ccc(-c3cncc(OC(C)CN4CCOCC4)c3)cc2s1 (stereo not drawn) [Example 231, N-(6-(5-(1-morpholinopropan-2-yloxy)pyridin-3-yl)benzo[d]thiazol-2-yl)acetamide]	637 nM	15700 nM
CC(=O)Nc1nc2ccc(-c3cncc(OCCN4CCOC4=O)c3)cc2s1 [Example 232, N-(6-(5-(2-(2-oxooxazolidin-3-yl)ethoxy)pyridin-3-yl)benzo[d]thiazol-2-yl)acetamide]	837 nM	7440 nM
CC(=O)Nc1nc2ccc(-c3cncc(OCCN4CCCCC4)c3)cc2s1 [Example 233, N-(6-(5-(2-(piperidin-1-yl)ethoxy)pyridin-3-yl)benzo[d]thiazol-2-yl)acetamide]	4140 nM	11900 nM
CC(=O)Nc1nc2ccc(-c3cncc(OCCN4CCCCCC4)c3)cc2s1 [Example 234, N-(6-(5-(2-(azepan-1-yl)ethoxy)pyridin-3-yl)benzo[d]thiazol-2-yl)acetamide]	2490 nM	9980 nM
CCOc1ccc(-c2ccc3nc(NC(C)=O)sc3c2)cn1 [Example 243, N-(6-(6-ethoxypyridin-3-yl)benzo[d]thiazol-2-yl)acetamide]	156 nM	> 40000 nM
COc1cc(C)c(-c2ccc3nc(NC(C)=O)sc3c2)cn1 [Example 244, N-(6-(6-methoxy-4-methylpyridin-3-yl)benzo[d]thiazol-2-yl)acetamide]	688 nM	2990 nM
COc1cc(Cl)ncc1-c1ccc2nc(NC(C)=O)sc2c1 [Example 246, N-(6-(6-chloro-4-methoxypyridin-3-yl)benzo[d]thiazol-2-yl)acetamide]	256 nM	12400 nM
CC(=O)Nc1nc2ccc(-c3cnccc3OC(F)F)cc2s1 [Example 248, N-(6-(4-(difluoromethoxy)pyridin-3-yl)benzo[d]thiazol-2-yl)acetamide]	3840 nM	17100 nM
CC(=O)Nc1nc2ccc(-c3ccc(OC(F)F)nc3)cc2s1 [Example 249, N-(6-(6-(difluoromethoxy)pyridin-3-yl)benzo[d]thiazol-2-yl)acetamide]	717 nM	8110 nM
CC(=O)Nc1nc2ccc(-c3cnc(OC(F)F)cc3C)cc2s1 [Example 250, N-(6-(6-(difluoromethoxy)-4-methylpyridin-3-yl)benzo[d]thiazol-2-yl)acetamide]	11900 nM	27500 nM

Structure (SMILES)	IC50 (PI3K α)	IC50 (PI3K β)
CC(=O)Nc1nc2ccc(-c3cnccc3CO)cc2s1 [Example 251, N-(6-(4-(hydroxymethyl)pyridin-3-yl)benzo[d]thiazol-2-yl)acetamide]	1910 nM	> 40000 nM
CC(=O)Nc1nc2ccc(-c3cncc(OCCN4CCC(C)(C)C4=O)c3)cc2s1 [Example 252]	2920 nM	45000 nM
CC(=O)Nc1nc2ccc(-c3cncc(OCCN4CCC(C)C4=O)c3)cc2s1 (stereo not drawn) [Example 253]	1540 nM	45600 nM
CC(=O)Nc1nc2ccc(-c3cncc(OCCN4CCC(F)(F)C4=O)c3)cc2s1 [Example 254]	1180 nM	24100 nM
CC(=O)Nc1nc2ccc(-c3cncc(OCCN4CCC(F)C4=O)c3)cc2s1 (stereo not drawn) [Example 255]	794 nM	> 40000 nM
CC(=O)Nc1nc2ccc(-c3ccnc(N4CCCCC4)n3)cc2s1 [Example 263, N-(6-(2-(piperidin-1-yl)pyrimidin-4-yl)benzo[d]thiazol-2-yl)acetamide]	1940 nM	> 40000 nM
CC(=O)Nc1nc2ccc(-c3ccnc(Nc4ccccn4)n3)cc2s1 [Example 264, N-(6-(2-(pyridin-2-ylamino)pyrimidin-4-yl)benzo[d]thiazol-2-yl)acetamide]	2490 nM	> 40000 nM
CC(=O)Nc1nc2ccc(-c3ccnc(NN4CCCCC4)n3)cc2s1 [Example 265, N-(6-(2-(piperidin-1-ylamino)pyrimidin-4-yl)benzo[d]thiazol-2-yl)acetamide]	2600 nM	40800 nM
CN(C)c1cc(-c2ccc3nc(NC(=O)NCCN4CCOCC4)sc3c2)cnc1Cl [Example 273, 1-(6-(6-chloro-5-(dimethylamino)pyridin-3-yl)benzo[d]thiazol-2-yl)-3-(2-morpholinoethyl)urea]	115 nM	2070 nM
CN(C)c1cc(-c2ccc3nc(NS(C)(=O)=O)sc3c2)cnc1Cl [Example 276, N-(6-(6-chloro-5-(dimethylamino)pyridin-3-yl)benzo[d]thiazol-2-yl)methanesulfonamide]	1720 nM	29900 nM
CC(=O)Nc1nc2ccc(-c3cnc(Cl)c(N(C(=O)OC(C)(C)C)C(=O)OC(C)(C)C)c3)cc2s1 [Example 277, Bis(tert-butyl) 5-(2-acetamidobenzo[d]thiazol-6-yl)-2-chloropyridin-3-ylcarbamate]	2190 nM	4800 nM
CC(=O)Nc1nc2ccc(-c3cnc(Cl)c(OC(C)C#N)c3)cc2s1 (stereo not drawn) [Example 290, N-(6-(6-chloro-5-(1-cyanoethoxy)pyridin-3-yl)benzo[d]thiazol-2-yl)acetamide]	111 nM	747 nM
CC(=O)Nc1nc2ccc(-c3cc(OC(C)C#N)cnc3Cl)cc2s1 (stereo not drawn) [Example 291, N-(6-(2-chloro-5-(1-cyanoethoxy)pyridin-3-yl)benzo[d]thiazol-2-yl)acetamide]	983 nM	3790 nM
COCCOCOc1cc(-c2ccc3nc(NC(C)=O)sc3c2)cnc1Cl [Example 292, N-(6-(6-chloro-5-((2-methoxyethoxy)methoxy)pyridin-3-yl)benzo[d]thiazol-2-yl)acetamide]	164 nM	2080 nM
COCCOCOc1cc(-c2ccc3nc(NC(C)=O)sc3c2)cnc1C(F)(F)F [Example 293, N-(6-(5-((2-methoxyethoxy)methoxy)-6-(trifluoromethyl)pyridin-3-yl)benzo[d]thiazol-2-yl)acetamide]	211 nM	> 40000 nM
COc1ccc(S(=O)(=O)Nc2cc(-c3ccc4nc(NC(=O)C5CCCCC5)sc4c3)cnc2Cl)cc1 [Example 304, N-(6-(6-chloro-5-(((4-methoxyphenyl)sulfonyl)amino)-3-pyridinyl)-1,3-benzothiazol-2-yl)cyclohexanecarboxamide]	16.3 nM	29.2 nM
COc1ccc(S(=O)(=O)Nc2cc(-c3ccc4nc(NC(C)C)sc4c3)cnc2Cl)cc1 [Example 305, N-(2-chloro-5-(2-((1-methylethyl)amino)-1,3-benzothiazol-6-yl)-3-pyridinyl)-4-methoxybenzenesulfonamide]	58.9 nM	224 nM
COc1ccc(S(=O)(=O)Nc2cc(-c3ccc4nc(NCC5CCCCC5)sc4c3)cnc2Cl)cc1 [Example 306, N-(2-chloro-5-(2-((cyclohexylmethyl)amino)-1,3-benzothiazol-6-yl)-3-pyridinyl)-4-methoxybenzenesulfonamide]	104 nM	411 nM
CC(C)(C)Nc1cc(-c2ccc3nc(N)sc3c2)cnc1Cl [Example 315, 6-(5-(tert-butylamino)-6-chloro-3-pyridinyl)-1,3-benzothiazol-2-amine]	965 nM	2940 nM
